In patent US6656912B2, “Methods to treat α1-antitrypsin deficiency” (Washington University in St. Louis, priority 2000, dated 2003):
Where a SMILES comes first, the peptide text is derived from it. The star is where a group is joined. Cbz = O=C(OCc1ccccc1)*

Columns and labels:
[1] = tested on: α1-ATZ mutant antitrypsin produced by human fibroblast cell line CJZ12B; experiment: Electrophoretic mobility of immunoprecipitated α1-ATZ from drug-treated, 35S-labeled cells (SDS-PAGE); format: cell-based; conditions: for migration of α1-ATZ compared to the 52 kD trimmed form: mannosidase inhibitors, tested as in Example 1; for migration of precipitated α1-ATZ / estimated molecular weight of the protein from treated cultures: 100 μg/ml CST or 3 mM MDNJ; for migration of precipitated α1-ATZ: 1 hour preincubation, 1.5 hours label, vs control medium; for estimated molecular weight of the protein from treated cultures: untreated form 52 kD
Description: (§1) The human fibroblast cell line CJZ12B which has been transduced with anthotropic recombinant retroviral particles to result in stable production of α1-ATZ mutant antitrypsin (Gross, V., et al., Biochem. J. (1986) supra) is used to produce α1-ATZ. The α1-ATZ mutant produced is labeled by adding 350-400 μCi TRAN^35S label to the medium.
It has previously been shown that α1-ATZ mutant migrates at 52 kD in electrophoretic studies. It is believed this form is an intermediate with high mannose-type oligosaccharide side chains (Wu, Y., et al., PNAS (1994) supra). The α1-ATZ producing cell line of Preparation A was incubated for 1 hour in control serum-free medium or in serum-free medium supplemented with 100 μg/ml CST or 3 mM MDNJ. The cells were then labeled with TRAN^35S for 1.5 hours maintaining the presence of the drugs. The antitrypsin fraction was immunoprecipitated from the cell lysates, resolved by 10% SDS-PAGE and detected with the Phosphorimager system. […] The estimated molecular weight of the protein from treated cultures is 55 kD.
The effect of the mannosidase inhibitors KIF (mannosidase I), DMJ (mannosidase I and II) and an additional inhibitor, DIM (mannosidase II) on electrophoretic mobility was tested as described in Example 1.

[2] = tested on: α1-ATZ mutant antitrypsin produced by human fibroblast cell line CJZ12B; experiment: Pulse-chase: disappearance of α1-ATZ from cell lysate and secretion into medium; format: cell-based; conditions: for molecular weight of intracellular and secreted protein / effect on amount of secreted α1-ATZ / effect on degradation / intracellular retention of α1-ATZ / fraction of α1-ATZ secreted: DMJ 1 mM, KIF 0.3 mM; for effect on amount of secreted α1-ATZ / effect on degradation / intracellular retention of α1-ATZ: DIM 1 mM, vs control; for fraction of α1-ATZ secreted: control 0.11; for disappearance of α1-ATZ from the cell lysate vs control / secretion of the 55 kD α1-ATZ into the medium: glucosidase inhibitors, pulse-chase in presence of drug
Description: as §1
The procedure of Example 1 was repeated except that after the incubation with label, the cells producing α1-ATZ were “chased” for various time intervals still in the presence of drug. At these time intervals, extracellular fluid and cell lysates were clarified, immunoprecipitated and analyzed by 8-10% SDS PAGE as previously described. (Wu, Y., et al., PNAS (1994) supra).
The pulse-chase experiments of Example 2 were repeated with the mannosidase inhibitors DMJ (1 mM) KIF (0.3 mM) and DIM (1 mM). In the presence of DMJ or KIF, the intracellular and secreted protein both have molecular weights of 52 kD. […] The half-life for disappearance of α1-ATZ from the lysate in the control is 0.95 hours and the fraction secreted is 0.11. […] (Control values were slightly different in this latter experiment.) There was no effect of DIM on degradation or secretion.

neutrophil elastase = experiment: Complex formation of secreted α1-ATZ with neutrophil elastase; format: cell-based; conditions: medium at 6 hours of chase, KIF (0.3 mM), DMJ (1 nM) or CST (100 μg/ml); for amount of elastase at which complexes start to form / amount of elastase for complete conversion to complexes: 30 minutes at 37°
Description: Both HepG2 cells, secreting wild type antitrypsin, and CJZ12B cells, which secrete the mutant, were subjected to pulse-chase conditions as described, for example, in Example 2. The mutant-secreting cells were treated with KIF (0.3 mM) DMJ (1 nM) or CST (100 μg/ml). The extracellular media from the 6 hours time point of the chase period were harvested and then incubated for 30 minutes at 37° with neutrophil elastase at various concentrations. The reaction mixtures were then immunoprecipitated with anti-antitrypsin and resolved by SDS PAGE.

[3] = tested on: α1-ATZ secreted by CJZ12B cells; experiment: endoH / PNGaseF digestion of α1-ATZ secreted by treated CJZ12B cells; format: cell-based, human; conditions: product of drug-treated CJZ12B cells
Description: Wild type α1-AT is secreted from HepG2 cells with a molecular weight of 55 kD. It is resistant to digestion with endoH but is cleaved to a 46 kD polypeptide by PNGaseF.
EndoH is glycolytic only for high mannose […] carbohydrate glycosylation chains; PNGaseF cleaves any carbohydrate and would be expected to degrade the glycosylation side chains of any glycoprotein.
This 55 kD α1-ATZ polypeptide was cleaved to 46 kD by PNGaseF.
The peptide secreted by KIF treated CJZ12B cells was cleaved both by endoH and PNGaseF to a 46 kD product.

α1-ATZ = experiment: Cell-free ER degradation of α1-ATZ (reticulocyte lysate with canine pancreatic microsomes); format: biochemical
Description: This system was described by Qu, D., et al., J. Biol. Chem. (1996) 271:22791-22795 cited above. In general, reticulocyte lysate cell free system supplemented with canine pancreatic microsomes was programmed with purified α1-ATZ mRNA over 60 minutes at 30° C. The microsomes were then isolated by centrifugation and incubated in a proteolysis-primed lysate at 37° for various time intervals. Aliquots were taken and the samples resolved on 10% SDS-PAGE gels.
To test the effect of drug, the reaction mixture was pre-incubated for 10 minutes at 30° C. in the absence of CST or in the presence of 100 μg/ml CST. α1-ATZ mRNA and ^35S-labeled methionine were added and translation conducted for 60 minutes at 30° C. in the absence or presence of CST. After co-translational translocation of α1-ATZ into the microsomes, the microsomes were harvested by centrifugation and the pellets suspended in […] of proteolysis-primed lysate with or without CST. The samples were incubated at 37° C. and aliquots analyzed at various time intervals.

[4] = tested on: α1-ATZ complexes with calnexin and GRP78/BiP; experiment: Co-immunoprecipitation of α1-ATZ with chaperones from microsomes; format: biochemical
Description: The procedure was repeated with 100 μg/ml CST present throughout and the microsomes were homogenized under nondenaturing conditions and immunoprecipitated with antibodies to calnexin and to a different chaperone, GRP78/BiP. The 52 kD form in the control was precipitated by anti-calnexin but the complex disappears between 30-45 minutes of the chase period. […] On the other hand, the 55 kD protein characteristic of the sample which includes CST is precipitated by anti-GRP78/BiP. This complex, too, disappears rapidly.

[5] = 100 μg/ml CST present throughout

Row | Compound | migration of α1-ATZ compared to the 52 kD trimmed form [1] | molecular weight of intracellular and secreted protein [2] | effect on amount of secreted α1-ATZ [2] | effect on degradation / intracellular retention of α1-ATZ [2] | fraction of α1-ATZ secreted [2] | molecular weight of α1-ATZ-elastase complexes (neutrophil elastase) | amount of elastase at which complexes start to form (neutrophil elastase) | amount of elastase for complete conversion to complexes (neutrophil elastase) | molecular weight of product after PNGaseF cleavage [3] | molecular weight of product(s) after endoH treatment [3] | sensitivity of secreted α1-ATZ to endoH [3] | migration of precipitated α1-ATZ [1] | estimated molecular weight of the protein from treated cultures [1] | disappearance of α1-ATZ from the cell lysate vs control [2] | secretion of the 55 kD α1-ATZ into the medium [2] | other results
1 | O=C1N[C@@H]2[C@@H](O)[C@@H](O)[C@H](O)[C@@H](CO)N2C1=O [KIF, kifunensine] | somewhat slower migration | 52 kD | increase | retained intracellularly for a longer period of time | 0.31 | 70 kD | 0.5 µg | 2 µg | 46 kD | 46 kD | cleaved | – | – | – | – | –
2 | CC(C)C[C@@H](C=O)NC(=O)[C@H](CC(C)C)NC(=O)[C@H](CC(C)C)NC(=O)OCc1ccccc1 [MG132] (Cbz-Leu-Leu-Leu-aldehyde) | – | – | – | – | – | – | – | – | – | – | – | – | – | – | – | effect on alternate degradation pathway of untrimmed α1-ATZ (α1-ATZ; CST present): inhibited
3 | OC[C@H]1NC[C@@H](O)[C@@H](O)[C@@H]1O [DMJ, deoxymannojirimycin] | somewhat slower migration | 52 kD | increase | retained intracellularly for a longer period of time | 0.28 | 70 kD | 0.5 µg | 2 µg | – | – | – | – | – | – | – | –
4 | O[C@H]1[C@H](O)[C@@H](O)CN2CC[C@H](O)[C@H]12 [CST, castanospermine] | – | – | – | – | – | 75 kD | 0.5 µg | 2 µg | 46 kD | 46 kD, 48 kD, and 52 kD | partial sensitivity | migrates more slowly | 55 kD | same rate | increase | precipitation of 55 kD α1-ATZ by anti-GRP78/BiP [4, 5]: precipitated; precipitation of α1-ATZ by anti-calnexin [4, 5]: Little if any precipitate; total α1-ATZ co-precipitated with the anti-GRP78/BiP antibody ([4]; CST present, estimated): 5-10%; newly synthesized 55 kD protein secreted into the medium ([2]; 100 μg/ml CST, by 6 hours of chase, untreated control 17%): 31%; time at which 55 kD protein disappears from the cell lysate ([2]; 100 μg/ml CST, chase): 2 to 4 h; time at which the 55 kD form begins to disappear (α1-ATZ; 100 μg/ml CST from pre-incubation on, 37° C., control 15-30 minutes): > 30 min; time at which disappearance is complete (α1-ATZ; 100 μg/ml CST from pre-incubation on, 37° C., control 30-45 minutes): 45 to 90 min; disappearance rate of the 52 kD form (α1-ATZ; CST added only during the chase period): same disappearance rate as the control
5 | OC[C@@H](O)[C@@H]1NC[C@@H](O)[C@H]1O [DIM] | – | – | no effect | no effect | – | – | – | – | – | – | – | – | – | – | – | –
6 | CN1C[C@H](O)[C@@H](O)[C@H](O)[C@H]1CO [MDNJ, N-methyldeoxynojirimycin] | – | – | – | – | – | – | – | – | – | – | – | migrates more slowly | 55 kD | accelerated over control | no secretion | –
